# Key:
# LD50 (mice) = conditions: mouse, in vivo
# Candida albicans [1] = assay: oral effectiveness in Candida-infected mice (survival); format: in vivo; conditions: 100 mg/kg twice daily for 7 days
# From the text: Accordingly, the compounds according to the invention are particularly suitable for the oral treatment of generalized infections by fungi and yeasts in human and veterinary medicine. Since the hitherto available medicaments are not yet satisfactory (Lit.: Infection 2, (1974) 95-107), they represent a valuable addition to pharmacology. In addition, they may be used equally effectively for the local treatment of surface infections and for the treatment of infections of the mucosa excessible to local treatment. Typical diseases of thiskind, for the treatment of which the compounds of the present invention are particular useful, are for instance generalized candidoses, candidoses of the lungs, of the skin or of the genitals or generalized trichophytoses (tineas) or trichophytoses of the skin, of the nails or of the hair.
# In order to determine the oral effectiveness of the compounds, groups of 10 mice each weighing approximately 20 g were each treated i.m for 2 days with 50 mg/kg of hydrocortisone to ensure effective development of the infection. The mice were then each infected i.v. with 500,000 Candida albicans germs and thereafter were treated twice daily for 7 days with 100 mg/kg of the substance to be tested. In addition to an infected, but untreated control group, one group was treated with the reference substance Miconazole for comparison.
# [2] = mice; literature value; cited from earlier work
# Staphylococcus aureus = assay: series dilution test in vitro, Staph. aur.; format: cell-based; design: key: .phi.: complete inhibition; (+): strong inhibition; +: moderate inhibition; ++: slight inhibition; +++: no inhibition; conditions: for inhibition of Staph. aur., 1st value: dilution 1: 10,000; for inhibition of Staph. aur., 2nd value: dilution 1: 100,000
# Description: (§1) The new compounds and their salts are valuable agents for controlling fungi and yeasts and, in addition, are also active against several types of bacteria. To test the antimicrobial activity of the new compounds in vitro, they were tested in a series dilution test with dilutions of from 1:10,000 to 1:100,000 for their effectiveness against the germs Staphylococcus aureus, Trichophyton mentagrophytes and Candida albicans.
# [3] = system: Trichophyton mentagrophytes; assay: series dilution test in vitro, Trichoph.; format: cell-based; design: key: .phi.: complete inhibition; (+): strong inhibition; +: moderate inhibition; ++: slight inhibition; +++: no inhibition; conditions: for inhibition of Trichoph., 1st value: dilution 1: 10,000; for inhibition of Trichoph., 2nd value: dilution 1: 100,000
# Description: as §1
# Candida albicans [4] = assay: series dilution test in vitro, Cand. alb.; format: cell-based; design: key: .phi.: complete inhibition; (+): strong inhibition; +: moderate inhibition; ++: slight inhibition; +++: no inhibition; conditions: for inhibition of Cand. alb., 1st value: dilution 1: 10,000; for inhibition of Cand. alb., 2nd value: dilution 1: 100,000
# Description: as §1
Structure (SMILES),LD50 (LD50 (mice)),animals still alive on the last day of the treatment (Candida albicans [1]),LD50 (Lit.) [2],"inhibition of Staph. aur., 1st value (Staphylococcus aureus)","inhibition of Staph. aur., 2nd value (Staphylococcus aureus)","inhibition of Trichoph., 1st value [3]","inhibition of Trichoph., 2nd value [3]","inhibition of Cand. alb., 1st value (Candida albicans [4])","inhibition of Cand. alb., 2nd value (Candida albicans [4])"
"Clc1ccc(C(=Cc2ccc(Cl)cc2Cl)Cn2ccnc2)cc1 [A, 1-(2,4-dichlorophenyl)-2-(4-chlorophenyl)-3-(imidazolyl-1)-propene-1-nitrate]",~1000 mg/kg,–,–,–,–,–,–,–,–
"Clc1ccc(C=C(Cn2ccnc2)c2ccc(Cl)cc2)cc1 [B, 1-(4-chlorophenyl)-2-(4-chlorophenyl)-3-(imidazolyl-1)-propene-1-nitrate]",~1000 mg/kg,–,–,–,–,–,–,–,–
"Clc1ccc(C(=Cc2ccccc2)Cn2ccnc2)cc1 [C, 1-phenyl-2-(4-chlorophenyl)-3-(imidazolyl-1)-propene-1-nitrate]",~1000 mg/kg,–,–,–,–,–,–,–,–
"Clc1ccc(C=C(Cn2ccnc2)c2ccccc2)c(Cl)c1 [D, 1-(2,4-dichlorophenyl)-2-phenyl-3-(imidazolyl-1)-propene-1-nitrate]",~1000 mg/kg,–,–,–,–,–,–,–,–
"Clc1ccc(C=C(Cn2ccnc2)c2ccc(Cl)cc2Cl)c(Cl)c1 [E, 1,2-bis-(2,4-dichlorophenyl)-3-(imidazolyl-1)-propene-1-nitrate]",~2000 mg/kg,–,–,–,–,–,–,–,–
"Clc1ccc(C=C(Cn2ccnc2)c2ccc(Cl)cc2Cl)cc1 [F, 1-(4-chlorophenyl)-2-(2,4-dichlorophenyl)-3-(imidazolyl-1)-propene-1-nitrate]",~2000 mg/kg,–,–,–,–,–,–,–,–
"Clc1ccc(C(=Cc2ccc(Br)cc2)Cn2ccnc2)c(Cl)c1 [G, 1-(4-bromophenyl)-2-(2,4-dichlorophenyl)-3-(imidazolyl-1)-propene-1-nitrate]",~1000 mg/kg,–,–,–,–,–,–,–,–
"Clc1ccc(COC(Cn2ccnc2)c2ccc(Cl)cc2Cl)c(Cl)c1 (stereo not drawn) [Miconazole, 1-[2,4-dichloro-β-(2,4,-dichlorobenzyloxy)-phenethyl]-imidazole nitrate]",–,20%,578 mg/kg,–,–,–,–,–,–
"Brc1ccc(C=C(Cn2ccnc2)c2ccc(Br)cc2)cc1 [n=0, R1=4-Br, R2=H, R3=4-Br, R4=H]",–,–,–,.phi.,.phi.,.phi.,.phi.,.phi.,++
"Cc1ccc(C(=Cc2ccc(Cl)cc2Cl)Cn2ccnc2)cc1 [n=0, R1=4-CH3, R2=H, R3=2-Cl, R4=4-Cl]",–,–,–,.phi.,.phi.,.phi.,.phi.,.phi.,(+)
"Clc1ccc(C(=Cc2ccc(Br)cc2)Cn2ccnc2)c(Cl)c1 [n=0, R1=4-Cl, R2=2-Cl, R3=4-Br, R4=H]",–,–,–,.phi.,.phi.,.phi.,.phi.,.phi.,++
"Clc1ccc(C(=Cc2ccc(Cl)c(Cl)c2)Cn2ccnc2)c(Cl)c1 [n=0, R1=4-Cl, R2=2-Cl, R3=4-Cl, R4=3-Cl]",–,–,–,.phi.,.phi.,.phi.,.phi.,.phi.,++
"Clc1ccc(C(=Cc2ccc(Br)cc2)Cn2ccnc2)cc1 [n=0, R1=4-Cl, R2=H, R3=4-Br, R4=H]",–,–,–,.phi.,.phi.,.phi.,.phi.,.phi.,++
"Clc1ccc(C=C(Cn2ccnc2)c2ccc(Cl)cc2)cc1 [n=0, R1=4-Cl, R2=H, R3=4-Cl, R4=H]",–,–,–,.phi.,.phi.,.phi.,.phi.,.phi.,(+ )
"COc1ccc(C(=Cc2ccccc2)Cn2ccnc2)cc1 [n=0, R1=H, R2=4-OCH3, R3=H, R4=H]",–,–,–,.phi.,.phi.,.phi.,.phi.,.phi.,+++
"Clc1ccc(C=C2c3cc(Cl)ccc3CC2n2ccnc2)c(Cl)c1 (stereo not drawn) [n=1, R1=6-Cl, R2=H, R3=4-Cl, R4=2-Cl]",–,–,–,.phi.,.phi.,.phi.,.phi.,.phi.,+++
"Clc1ccc(C=C2c3cc(Cl)ccc3CC2n2ccnc2)cc1 (stereo not drawn) [n=1, R1=6-Cl, R2=H, R3=4-Cl, R4=H]",–,–,–,.phi.,.phi.,.phi.,.phi.,.phi.,++
"Clc1ccc(C=C2c3ccccc3CC2n2ccnc2)cc1Cl (stereo not drawn) [n=1, R1=H, R2=H, R3=3-Cl, R4=4-Cl]",–,–,–,.phi.,.phi.,.phi.,.phi.,.phi.,++
"Clc1ccc(C=C2c3ccccc3CC2n2ccnc2)cc1 (stereo not drawn) [n=1, R1=H, R2=H, R3=H, R4=4-Cl]",–,–,–,.phi.,.phi.,.phi.,.phi.,.phi.,++
"Clc1ccc(C=C2c3ccccc3CCC2n2ccnc2)cc1 (stereo not drawn) [n=2, R1=H, R2=H, R3=H, R4=4-Cl]",–,–,–,.phi.,.phi.,.phi.,.phi.,.phi.,++
"C(=C1c2ccccc2CCC1n1ccnc1)c1ccccc1 (stereo not drawn) [n=2, R1=H, R2=H, R3=H, R4=H]",–,–,–,.phi.,.phi.,.phi.,.phi.,.phi.,+++
